Laboratory results: ChEMBL document CHEMBL5550083, “Structural optimization of a lysine demethylase 5 inhibitor for improvement of its cellular activity” (Bioorg Med Chem, 2024)
pIC50: −log10 of the molar value. Blank lines part the entries; values can stand above or below the compound they belong to. The source made the active and inactive calls. The calls are words filed in the database; no cut-off is given here.

Assays:
[1] = molecular target: T1, Lysine-specific demethylase 4A (Homo sapiens, UniProt O75164); assay: Inhibition of KDM4A (unknown origin) incubated for 2 hrs by Alphascreen assay
T1 sequence (O75164 whole entry): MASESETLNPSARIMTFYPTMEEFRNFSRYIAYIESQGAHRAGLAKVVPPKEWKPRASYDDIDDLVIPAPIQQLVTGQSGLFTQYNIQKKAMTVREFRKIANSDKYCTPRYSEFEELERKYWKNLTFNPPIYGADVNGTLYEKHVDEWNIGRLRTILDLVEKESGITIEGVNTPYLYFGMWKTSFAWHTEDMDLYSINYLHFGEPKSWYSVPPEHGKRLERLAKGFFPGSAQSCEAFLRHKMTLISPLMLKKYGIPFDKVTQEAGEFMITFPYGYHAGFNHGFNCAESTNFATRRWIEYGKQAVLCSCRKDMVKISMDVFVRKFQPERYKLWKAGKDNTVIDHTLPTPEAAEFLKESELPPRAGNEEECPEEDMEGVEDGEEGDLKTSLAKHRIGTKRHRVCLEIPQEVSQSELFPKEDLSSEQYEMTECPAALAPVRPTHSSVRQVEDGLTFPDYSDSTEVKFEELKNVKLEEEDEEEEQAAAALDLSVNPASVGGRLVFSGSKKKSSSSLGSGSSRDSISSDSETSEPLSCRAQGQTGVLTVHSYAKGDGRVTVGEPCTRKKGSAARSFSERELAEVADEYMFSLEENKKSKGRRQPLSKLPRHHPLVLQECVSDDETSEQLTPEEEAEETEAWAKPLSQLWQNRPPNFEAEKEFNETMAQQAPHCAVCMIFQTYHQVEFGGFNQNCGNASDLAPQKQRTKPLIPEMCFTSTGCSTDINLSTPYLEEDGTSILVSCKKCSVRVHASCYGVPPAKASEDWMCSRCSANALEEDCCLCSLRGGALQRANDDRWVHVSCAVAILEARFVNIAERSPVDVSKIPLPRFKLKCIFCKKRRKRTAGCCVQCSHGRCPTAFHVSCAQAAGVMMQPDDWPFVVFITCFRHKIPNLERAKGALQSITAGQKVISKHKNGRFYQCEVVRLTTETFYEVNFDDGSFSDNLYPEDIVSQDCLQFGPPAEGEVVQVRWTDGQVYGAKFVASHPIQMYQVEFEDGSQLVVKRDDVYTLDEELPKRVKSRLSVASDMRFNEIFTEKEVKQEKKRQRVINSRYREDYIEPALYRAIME

[2] = molecular target: Lysine-specific demethylase 5A (Homo sapiens, UniProt P29375); assay: Inhibition of KDM5A (unknown origin) incubated for 2 hrs by Alphascreen assay
[3] = molecular target: Lysine-specific demethylase 6B (Homo sapiens, UniProt O15054); assay: Inhibition of KDM6B (unknown origin) incubated for 2 hrs by Alphascreen assay
[4] = molecular target: T2, Lysine-specific demethylase 5B (Homo sapiens, UniProt Q9UGL1); assay: Inhibition of KDM5B (unknown origin) incubated for 2 hrs by Alphascreen assay
[5] = molecular target: T3, Lysine-specific demethylase 3A (Homo sapiens, UniProt Q9Y4C1); assay: Inhibition of KDM3A (unknown origin) incubated for 2 hrs by Alphascreen assay
T3 sequence (Q9Y4C1 whole entry): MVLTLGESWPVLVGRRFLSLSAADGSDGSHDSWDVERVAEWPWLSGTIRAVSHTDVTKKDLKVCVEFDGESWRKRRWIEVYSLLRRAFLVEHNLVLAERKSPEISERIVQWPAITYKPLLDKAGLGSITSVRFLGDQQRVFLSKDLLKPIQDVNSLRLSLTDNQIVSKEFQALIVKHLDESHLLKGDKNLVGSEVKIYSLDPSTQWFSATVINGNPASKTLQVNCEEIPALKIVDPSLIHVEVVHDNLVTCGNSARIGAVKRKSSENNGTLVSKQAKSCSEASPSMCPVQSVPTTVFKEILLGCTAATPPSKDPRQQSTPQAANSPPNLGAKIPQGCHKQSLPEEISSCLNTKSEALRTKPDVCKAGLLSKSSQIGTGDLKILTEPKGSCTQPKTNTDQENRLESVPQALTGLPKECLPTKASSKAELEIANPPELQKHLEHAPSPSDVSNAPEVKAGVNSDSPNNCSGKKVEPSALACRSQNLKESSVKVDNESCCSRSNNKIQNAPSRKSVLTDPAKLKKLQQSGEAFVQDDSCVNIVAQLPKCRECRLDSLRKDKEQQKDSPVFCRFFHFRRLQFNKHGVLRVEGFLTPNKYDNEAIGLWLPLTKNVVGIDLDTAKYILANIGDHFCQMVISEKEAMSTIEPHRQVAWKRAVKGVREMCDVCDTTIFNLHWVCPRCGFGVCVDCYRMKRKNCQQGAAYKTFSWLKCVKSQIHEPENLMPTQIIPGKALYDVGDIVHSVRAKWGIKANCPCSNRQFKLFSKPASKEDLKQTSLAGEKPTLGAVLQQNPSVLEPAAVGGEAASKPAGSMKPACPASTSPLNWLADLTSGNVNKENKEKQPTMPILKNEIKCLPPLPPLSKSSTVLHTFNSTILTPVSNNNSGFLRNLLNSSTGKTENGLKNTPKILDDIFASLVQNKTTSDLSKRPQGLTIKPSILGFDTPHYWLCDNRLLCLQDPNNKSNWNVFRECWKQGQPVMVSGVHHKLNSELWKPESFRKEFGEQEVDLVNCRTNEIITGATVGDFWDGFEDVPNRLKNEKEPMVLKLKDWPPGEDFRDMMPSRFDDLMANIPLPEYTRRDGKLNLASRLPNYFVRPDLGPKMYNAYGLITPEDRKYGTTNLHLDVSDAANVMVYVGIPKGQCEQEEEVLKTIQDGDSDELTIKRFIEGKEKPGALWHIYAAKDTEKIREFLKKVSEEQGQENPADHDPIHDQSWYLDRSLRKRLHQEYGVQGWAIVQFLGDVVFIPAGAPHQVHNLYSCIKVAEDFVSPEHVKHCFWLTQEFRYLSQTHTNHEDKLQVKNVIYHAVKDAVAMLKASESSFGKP

[6] = molecular target: Lysine-specific demethylase 5C (Homo sapiens, UniProt P41229); assay: Inhibition of KDM5C (unknown origin) incubated for 2 hrs by Alphascreen assay
[7] = Lipophilicity, log D of the compound in PBS at 100 uM at pH 7.4 incubated for 20 mins by UPLC analysis; format: physicochemical
[8] = Apparent permeability of the compound at 100 uM incubated for 4 hrs by PAMPA assay; format: ADME
[9] = tested on: A549; assay: Inhibition of KDM5 in human A549 cells assessed as increase in H3K4me3 level at 400 nM by Western blot analysis; format: cell-based; conditions: time 1-18 hrs, TDE = time-dependent effect
[10] = tested on: A549; assay: Inhibition of KDM4 in human A549 cells assessed as increase in H3K9me3 level at 100 to 400 nM incubated for 18 hrs by Western blot analysis; format: cell-based; conditions: dose 100-400 nM
[11] = tested on: A549; assay: Inhibition of KDM6 in human A549 cells assessed as increase in H3K27me3 level at 100 to 400 nM incubated for 18 hrs by Western blot analysis; format: cell-based; conditions: dose 100-400 nM
[12] = tested on: A549; assay: Inhibition of KDM5 in human A549 cells assessed as increase in H3K4me3 level incubated for 18 hrs by Western blot analysis; format: cell-based; conditions: dose 100-400 nM
[13] = tested on: A549; assay: Inhibition of KDM5 in human A549 cells assessed as increase in H3K4me3 level at 400 nM incubated for 18 hrs by Western blot analysis; format: cell-based
[14] = molecular target: T2, Lysine-specific demethylase 5B; assay: Inhibition of KDM5B (unknown origin) at 10 nM incubated for 2 hrs by Alphascreen assay

T2 sequence (Q9UGL1 whole entry): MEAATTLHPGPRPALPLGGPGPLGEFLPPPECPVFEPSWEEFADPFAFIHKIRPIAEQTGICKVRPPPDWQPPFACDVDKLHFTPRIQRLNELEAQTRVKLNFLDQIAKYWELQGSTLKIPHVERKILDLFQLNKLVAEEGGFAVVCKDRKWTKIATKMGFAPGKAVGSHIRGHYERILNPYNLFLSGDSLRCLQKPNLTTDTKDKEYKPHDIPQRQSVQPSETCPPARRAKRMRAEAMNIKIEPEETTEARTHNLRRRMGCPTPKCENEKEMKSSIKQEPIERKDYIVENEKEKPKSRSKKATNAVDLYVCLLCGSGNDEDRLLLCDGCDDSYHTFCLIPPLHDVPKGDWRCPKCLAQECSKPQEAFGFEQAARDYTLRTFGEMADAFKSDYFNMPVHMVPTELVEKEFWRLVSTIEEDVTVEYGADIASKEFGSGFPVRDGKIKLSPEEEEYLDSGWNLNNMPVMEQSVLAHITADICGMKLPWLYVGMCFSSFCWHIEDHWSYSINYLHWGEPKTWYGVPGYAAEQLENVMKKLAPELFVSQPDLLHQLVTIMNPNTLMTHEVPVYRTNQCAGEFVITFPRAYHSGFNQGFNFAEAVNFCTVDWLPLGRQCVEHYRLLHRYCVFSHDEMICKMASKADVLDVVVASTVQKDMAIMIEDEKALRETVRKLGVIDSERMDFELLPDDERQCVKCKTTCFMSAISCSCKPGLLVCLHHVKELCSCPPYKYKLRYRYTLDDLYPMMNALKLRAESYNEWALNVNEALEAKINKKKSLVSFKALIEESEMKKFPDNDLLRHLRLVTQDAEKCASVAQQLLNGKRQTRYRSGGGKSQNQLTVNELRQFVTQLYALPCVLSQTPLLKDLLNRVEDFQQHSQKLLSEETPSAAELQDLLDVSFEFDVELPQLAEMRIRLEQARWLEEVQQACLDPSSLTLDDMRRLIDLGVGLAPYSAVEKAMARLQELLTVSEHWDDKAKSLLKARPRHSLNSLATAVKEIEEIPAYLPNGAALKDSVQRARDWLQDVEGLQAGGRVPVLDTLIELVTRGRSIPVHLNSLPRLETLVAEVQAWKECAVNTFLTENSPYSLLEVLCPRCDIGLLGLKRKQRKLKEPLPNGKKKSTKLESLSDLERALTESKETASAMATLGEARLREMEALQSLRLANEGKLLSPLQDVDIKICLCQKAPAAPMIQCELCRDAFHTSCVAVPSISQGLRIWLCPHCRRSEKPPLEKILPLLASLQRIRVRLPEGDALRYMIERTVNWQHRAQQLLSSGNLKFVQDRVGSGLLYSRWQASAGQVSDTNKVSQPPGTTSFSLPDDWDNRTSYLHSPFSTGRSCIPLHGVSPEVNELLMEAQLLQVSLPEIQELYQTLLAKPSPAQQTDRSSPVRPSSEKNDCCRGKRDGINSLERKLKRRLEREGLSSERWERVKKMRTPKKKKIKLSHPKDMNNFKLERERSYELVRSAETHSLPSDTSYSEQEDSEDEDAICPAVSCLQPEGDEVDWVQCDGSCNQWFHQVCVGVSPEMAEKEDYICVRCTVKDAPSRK
Sequence of Lysine-specific demethylase 5A (P29375 whole entry): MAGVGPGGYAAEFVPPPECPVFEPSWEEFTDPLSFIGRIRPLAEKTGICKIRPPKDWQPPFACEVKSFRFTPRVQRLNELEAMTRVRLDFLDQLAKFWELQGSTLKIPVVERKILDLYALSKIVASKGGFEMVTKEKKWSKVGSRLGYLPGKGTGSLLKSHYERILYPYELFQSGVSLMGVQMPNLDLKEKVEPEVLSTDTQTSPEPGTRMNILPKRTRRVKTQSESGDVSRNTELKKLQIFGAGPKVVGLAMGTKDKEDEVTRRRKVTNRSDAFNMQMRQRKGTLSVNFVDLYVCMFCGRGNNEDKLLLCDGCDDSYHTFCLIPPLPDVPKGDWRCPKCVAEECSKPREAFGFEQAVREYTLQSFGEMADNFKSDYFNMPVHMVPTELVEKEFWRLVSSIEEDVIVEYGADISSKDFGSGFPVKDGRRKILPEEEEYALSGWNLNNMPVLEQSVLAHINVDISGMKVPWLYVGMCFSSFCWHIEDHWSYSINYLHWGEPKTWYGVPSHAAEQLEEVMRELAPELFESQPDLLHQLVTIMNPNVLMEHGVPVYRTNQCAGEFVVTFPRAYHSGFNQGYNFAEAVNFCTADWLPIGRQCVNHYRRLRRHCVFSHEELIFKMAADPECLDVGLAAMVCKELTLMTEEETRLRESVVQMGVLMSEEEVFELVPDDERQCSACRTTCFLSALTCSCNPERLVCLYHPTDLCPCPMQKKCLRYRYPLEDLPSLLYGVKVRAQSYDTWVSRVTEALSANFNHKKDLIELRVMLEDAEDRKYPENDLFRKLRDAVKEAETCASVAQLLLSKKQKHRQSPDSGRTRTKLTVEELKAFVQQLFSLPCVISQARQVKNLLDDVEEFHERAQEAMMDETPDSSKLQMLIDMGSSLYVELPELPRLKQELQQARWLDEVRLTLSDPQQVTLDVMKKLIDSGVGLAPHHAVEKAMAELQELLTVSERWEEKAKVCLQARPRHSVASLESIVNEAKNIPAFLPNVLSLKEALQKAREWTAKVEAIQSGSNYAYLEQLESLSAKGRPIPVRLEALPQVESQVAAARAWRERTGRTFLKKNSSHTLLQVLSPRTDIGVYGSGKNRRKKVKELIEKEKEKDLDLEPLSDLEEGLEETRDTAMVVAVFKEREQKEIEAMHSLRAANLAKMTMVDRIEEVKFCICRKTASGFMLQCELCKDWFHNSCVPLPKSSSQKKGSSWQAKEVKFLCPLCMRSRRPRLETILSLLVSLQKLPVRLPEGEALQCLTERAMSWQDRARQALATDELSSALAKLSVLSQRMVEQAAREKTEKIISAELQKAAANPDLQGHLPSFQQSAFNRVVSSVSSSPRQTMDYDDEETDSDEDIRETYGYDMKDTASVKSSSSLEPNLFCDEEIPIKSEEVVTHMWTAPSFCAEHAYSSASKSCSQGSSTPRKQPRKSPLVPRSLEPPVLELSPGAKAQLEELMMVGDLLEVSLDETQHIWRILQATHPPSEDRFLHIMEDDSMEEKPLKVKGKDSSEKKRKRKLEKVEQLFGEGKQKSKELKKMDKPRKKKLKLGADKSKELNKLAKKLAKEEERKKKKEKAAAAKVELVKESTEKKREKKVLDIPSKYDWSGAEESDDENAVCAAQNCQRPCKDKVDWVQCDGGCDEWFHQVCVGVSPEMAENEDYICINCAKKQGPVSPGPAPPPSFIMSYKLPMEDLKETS
Sequence of Lysine-specific demethylase 5C (P41229 whole entry): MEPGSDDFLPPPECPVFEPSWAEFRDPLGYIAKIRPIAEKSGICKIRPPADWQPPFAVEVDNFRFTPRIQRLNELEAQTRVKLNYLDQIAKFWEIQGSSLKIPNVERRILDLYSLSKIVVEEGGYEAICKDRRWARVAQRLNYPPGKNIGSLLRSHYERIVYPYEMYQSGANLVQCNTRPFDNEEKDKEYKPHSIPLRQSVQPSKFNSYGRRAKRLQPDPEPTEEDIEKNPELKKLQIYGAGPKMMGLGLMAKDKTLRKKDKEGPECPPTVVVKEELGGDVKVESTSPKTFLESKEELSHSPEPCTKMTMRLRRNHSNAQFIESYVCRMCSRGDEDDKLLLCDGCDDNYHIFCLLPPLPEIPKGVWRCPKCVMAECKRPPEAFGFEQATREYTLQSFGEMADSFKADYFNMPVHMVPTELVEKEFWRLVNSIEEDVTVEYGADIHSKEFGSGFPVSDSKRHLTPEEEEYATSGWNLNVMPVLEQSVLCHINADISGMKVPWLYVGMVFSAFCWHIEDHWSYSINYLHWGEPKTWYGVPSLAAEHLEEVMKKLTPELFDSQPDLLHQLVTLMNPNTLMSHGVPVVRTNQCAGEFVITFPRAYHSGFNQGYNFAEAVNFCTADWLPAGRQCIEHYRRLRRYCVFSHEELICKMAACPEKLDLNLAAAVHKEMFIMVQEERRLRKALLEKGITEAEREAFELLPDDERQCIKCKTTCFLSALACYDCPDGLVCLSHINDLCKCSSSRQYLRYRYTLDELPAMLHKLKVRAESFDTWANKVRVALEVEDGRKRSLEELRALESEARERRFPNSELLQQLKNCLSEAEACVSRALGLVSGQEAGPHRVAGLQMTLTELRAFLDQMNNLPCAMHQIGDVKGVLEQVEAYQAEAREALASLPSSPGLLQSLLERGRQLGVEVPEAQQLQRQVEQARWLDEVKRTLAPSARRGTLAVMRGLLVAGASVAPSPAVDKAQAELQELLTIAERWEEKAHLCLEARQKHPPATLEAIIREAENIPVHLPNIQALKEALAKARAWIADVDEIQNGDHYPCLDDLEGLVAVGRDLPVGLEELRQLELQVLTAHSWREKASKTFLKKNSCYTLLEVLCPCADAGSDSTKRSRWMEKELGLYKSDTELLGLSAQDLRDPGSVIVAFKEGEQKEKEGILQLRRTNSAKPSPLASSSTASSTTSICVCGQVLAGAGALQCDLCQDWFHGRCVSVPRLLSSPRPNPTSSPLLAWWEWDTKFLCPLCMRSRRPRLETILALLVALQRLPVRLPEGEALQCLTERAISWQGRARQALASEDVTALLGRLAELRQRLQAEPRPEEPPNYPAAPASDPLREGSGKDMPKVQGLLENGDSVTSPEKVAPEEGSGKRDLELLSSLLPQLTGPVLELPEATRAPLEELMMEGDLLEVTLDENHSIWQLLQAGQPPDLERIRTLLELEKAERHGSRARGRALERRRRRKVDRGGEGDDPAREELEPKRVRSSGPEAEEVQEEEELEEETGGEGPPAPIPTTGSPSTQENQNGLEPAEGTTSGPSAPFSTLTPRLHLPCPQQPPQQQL

logD at 20 min, 100 µM [7]: 1.5
Papp at 4 h, 100 µM [8]: 1 nm/s
pIC50 [4]: 6.68
SMILES: CCOC(=O)c1ccnc(CNCC(=O)N(CC)CCN(C)C)c1

inhibition activity call [14]: Active
pIC50 [4]: 8.20
SMILES: CCCN(C)CCN(CC)C(=O)CNCc1cc(C(=O)O)ccn1

pIC50 [1]: 6.41
pIC50 [2]: 8.91
pIC50 [3]: < 5.30
pIC50 [5]: < 4.30
pIC50 [6]: 7.87
SMILES: CCCCN(C)CCN(CC)C(=O)CNCc1cc(C(=O)O)ccn1

inhibition activity call [14]: Active
SMILES: CCCN(CCC)CCN(CC)C(=O)CNCc1cc(C(=O)O)ccn1

inhibition activity call [14]: Active
pIC50 [4]: 8.52
SMILES: CCN(CCN(C)C(C)C)C(=O)CNCc1cc(C(=O)O)ccn1

Further lines, the compound ahead of its results:

SMILES: CCN(CCN(C)C)C(=O)CNCc1cc(C(=O)O)ccn1
pIC50 [1]: 6.76
pIC50 [2]: 8.85
pIC50 [3]: < 5.30
pIC50 [4]: 8.65
pIC50 [5]: < 4.30
pIC50 [6]: 8.00

SMILES: CCCCN(C)CCN(CC)C(=O)CNCc1cc(C(=O)OCC)ccn1
inhibition [9]: Tde
logD at 20 min, 100 µM [7]: 2.2
inhibition [10]: inactive
inhibition [11]: inactive
inhibition [12]: Dose-Dependent Effect
Papp at 4 h, 100 µM [8]: 6 nm/s
inhibition [13]: Active

SMILES: CCN(CCN(Cc1ccccc1)Cc1ccccc1)C(=O)CNCc1cc(C(=O)O)ccn1
inhibition activity call [14]: Active

SMILES: CCN(C)CCN(CC)C(=O)CNCc1cc(C(=O)O)ccn1
inhibition activity call [14]: Active
pIC50 [4]: 8.16

SMILES: CCN(CC)CCN(CC)C(=O)CNCc1cc(C(=O)O)ccn1
inhibition activity call [14]: Active

SMILES: CCN(CCN(C(C)C)C(C)C)C(=O)CNCc1cc(C(=O)O)ccn1
inhibition activity call [14]: Active

SMILES: CCCCN(CCCC)CCN(CC)C(=O)CNCc1cc(C(=O)O)ccn1
inhibition activity call [14]: Active

SMILES: CCN(CCN(C)Cc1ccccc1)C(=O)CNCc1cc(C(=O)O)ccn1
inhibition activity call [14]: Active
pIC50 [4]: 8.07

SMILES: CC(C)NCC(O)COc1cccc2ccccc12 (stereo not given) [PROPRANOLOL]
Papp at 4 h, 100 µM [8]: 39 nm/s
